In ChEMBL document CHEMBL1150516, “Synthesis and biological activity of C-6 modified derivatives of the glucosidase inhibitor 1-deoxynojirimycin” (Bioorg Med Chem Lett, 1992):
Activity calls are given as the source filed them. No cut-off for these calls is given here.

Assays:
[1] = pKa value was determined; format: physicochemical
[2] = Percentase inhibition on glucosidase I of glycoprotein trimming from pig liver at 1 mM concentration; format: functional; details: Sus scrofa
Sus scrofa = species: Sus scrofa; test: Percentase inhibition on glucosidase I of glycoprotein trimming from pig liver at 2.5 mM concentration; NI=No inhibition; format: functional, tissue-based
[3] = Competitive Inhibition constant on jack bean mannosidase; NI=No inhibition; details: Canavalia ensiformis
[4] = Competitive Inhibition constant on almonds beta Glucosidase; NI=No inhibition; details: Prunus dulcis

SMILES | pKa [1] | inhibition (Sus scrofa) | Activity [3] | Activity [4] | inhibition at 1000 µM [2]
OC1CCN2C[C@H](O)[C@@H](O)[C@H](O)C12 (some centres undefined) | ~6.5 | – | – | – | –
OC[C@H]1NC[C@@H](F)[C@@H](O)[C@@H]1O | – | – | inactive | inactive | –
CCO[C@@H]1CN[C@H](CO)[C@@H](O)[C@@H]1O | – | – | inactive | inactive | –

Further lines, with some results ahead:

pKa [1] | inhibition (Sus scrofa) | Activity [3] | Activity [4] | SMILES | inhibition at 1000 µM [2]
~6.5 | inactive | – | – | CCC(O)[C@H]1NC[C@H](O)[C@@H](O)[C@@H]1O (some centres undefined) | 50%
~6.5 | – | – | – | OC[C@H]1NC[C@H](O)[C@@H](O)[C@@H]1O [DUVOGLUSTAT] | –
